From US9527819B2, “Pyridazine compounds, compositions and methods” (NORTHWESTERN UNIVERSITY, priority 2004, dated 2016) come the findings set out here.

What is called IC50 is the concentration at which inhibition is half-maximal. A word on the inhibition: it is the relative decrease from the control value, in per cent.

For data set [1], the target named is T1, hERG K+ channel (Homo sapiens, UniProt Q12809).
T1 construct: MDS PharmaService (commercial assay service)
The data set is described as follows: hERG channel activity patch clamp inhibition assay. The data set is classed as cell-based. As to conditions: three concentrations (0.1, 1, 10 μM), whole cell patch clamp. The text has this: The hERG channel activity inhibition assay provides whole cell electrophysiological data about compound effects on the hERG K^+ channel function. Whole cell patch clamp methodology is generally considered to be the gold-standard determination of ion channel activity, rather than simply measuring channel binding. The standard testing procedure is to use 3 to 5 concentrations of compound at log dilutions with each concentration tested in triplicate (three cells). This allows a balance between achieving a reasonably accurate IC50 measurement against a broad concentration range, and reducing cell attrition that would occur during more protracted experiment durations. After completion of compound dose-response procedures, a known hERG channel inhibitor, such as astemizole, is applied as a positive control.

The subject of data set [2] is BV-2 mouse microglial cells. The data set is described as follows: LPS-stimulated proinflammatory cytokine production in BV-2 microglial cell culture assay. The data set is classed as cell-based. The conditions noted are these: for IL-1β production / TNFα production: LPS 100 ng/ml, 16 hrs, levels in cell lysates. The protocol:
EL-1/3 and TNFa levels in cell lysates were determined by electro-chemiluminescent detection in a Meso-Scale Discovery (MSD) kit, as per the manufacturer's instructions.
Data are the mean+/− SEM of triplicate determinations.

Data set [3] relates to activated glia. The data set is described as follows: Western blots of iNOS, COX-2, apoE production in activated glia cultures. The data set is classed as cell-based. As to conditions: 7.5 μM, western blot. On the procedure: Cultures were treated with control buffer, C, or activated in the absence, A, or presence, A+188, of 7.5 μMW01-5-188WH. […] Bar=125 μm. […] A schematic of the experimental paradigm is shown. […] Bars=25 μm. […] Quantification of amyloid burden from all mice (n=5/group) was done by determination of the amyloid load. Data are mean±SEM. […] (C) Spontaneous alternation of mice in the Y-maze, a hippocampus-dependent spatial learning task, was measured for 10 days during the 7th and 8th week after the start of Aβ infusion. Data are mean±SEM of n=5 or 10 per group.
Background: In western blotting, separated proteins are transferred to a membrane and probed.

The subject of data set [4] is anesthetized guinea pigs. The data set is described as follows: Cardiac QT interval prolongation assay. As to conditions: PO 15 mg/kg. Type of data set: in vivo, guinea pig. The protocol: The QT interval studies are performed by evaluating compounds for effects on QT interval in Lead II electrocardiograms measured in anesthetized guinea pigs (Hirohashi et al., 1991), one of the species recommended in the FDA white paper. Vehicle or compound is administered orally at 15 mg/kg (dosing volume of 10 ml/kg) to groups of male guinea pigs (weighing 330-350 g), with 5 animals per group. […] Heart rate, arterial blood pressure, and QT intervals are measured at baseline, and at 15, 30, 45, and 60 min after compound administration. Sotalol administered iv at 0.3 mg/kg serves as the positive control compound. The QT intervals are corrected for changes in heart rate using both Bazett's and Fridericia's formulae. Any increase in QT interval values over baseline values exceeding the upper 95% confidence limit of the mean changes at the corresponding time point in the vehicle-treated control group for two consecutive observation times indicates significant QT interval prolongation in the individually treated animals.

Data set [5] concerns Aβ-infused mice (hippocampus). The data set is described as follows: Human Aβ infusion mouse model of neuroinflammation and neuronal injury. The data set is classed as in vivo. The text has this:
Briefly, oligomeric […] was infused ICV for 28 days with a micro-osmotic pump. […] At post-operative day 60, mice were perfused and sacrificed, and hippocampal endpoints measured as previously described. Endpoint assays included immunohistochemical detection of activated astrocytes and microglia by glial fibrillary acidic protein (GFAP) and F4/80 staining, measurement of the levels of the pro-inflammatory cytokines IL-1|S, TNFa, and S100B by ELISA, and determination of synaptic damage by analysis of the levels of postsynaptic density protein-95 (PSD-95). […] Cultures were treated with control buffer, C, or activated in the absence, A, or presence, A+188, of 7.5 μMW01-5-188WH. […] Bar=125 μm. […] A schematic of the experimental paradigm is shown. […] Bars=25 μm. […] Quantification of amyloid burden from all mice (n=5/group) was done by determination of the amyloid load. Data are mean±SEM. […] (C) Spontaneous alternation of mice in the Y-maze, a hippocampus-dependent spatial learning task, was measured for 10 days during the 7th and 8th week after the start of Aβ infusion. Data are mean±SEM of n=5 or 10 per group.

For data set [6], the target named is hERG (Homo sapiens, UniProt Q12809). The data set is described as follows: hERG competition binding assay (3H-astemizole). As to conditions: HEK-293 cells stably expressing recombinant hERG channels, probe 3H-astemizole. The text has this: The initial assay is a radioligand binding assay that tests the ability of the test compound to compete with ^3H-astemizole (a reference standard that binds to hERG channels with nM affinity) for binding to recombinant hERG channels stably expressed on human HEK-293 cells. […] This is usual for medium throughout screens but is not recommended in the FDA document and tends to give false positives, as evidenced by the results reported below.
Chain of hERG (Q12809 whole entry): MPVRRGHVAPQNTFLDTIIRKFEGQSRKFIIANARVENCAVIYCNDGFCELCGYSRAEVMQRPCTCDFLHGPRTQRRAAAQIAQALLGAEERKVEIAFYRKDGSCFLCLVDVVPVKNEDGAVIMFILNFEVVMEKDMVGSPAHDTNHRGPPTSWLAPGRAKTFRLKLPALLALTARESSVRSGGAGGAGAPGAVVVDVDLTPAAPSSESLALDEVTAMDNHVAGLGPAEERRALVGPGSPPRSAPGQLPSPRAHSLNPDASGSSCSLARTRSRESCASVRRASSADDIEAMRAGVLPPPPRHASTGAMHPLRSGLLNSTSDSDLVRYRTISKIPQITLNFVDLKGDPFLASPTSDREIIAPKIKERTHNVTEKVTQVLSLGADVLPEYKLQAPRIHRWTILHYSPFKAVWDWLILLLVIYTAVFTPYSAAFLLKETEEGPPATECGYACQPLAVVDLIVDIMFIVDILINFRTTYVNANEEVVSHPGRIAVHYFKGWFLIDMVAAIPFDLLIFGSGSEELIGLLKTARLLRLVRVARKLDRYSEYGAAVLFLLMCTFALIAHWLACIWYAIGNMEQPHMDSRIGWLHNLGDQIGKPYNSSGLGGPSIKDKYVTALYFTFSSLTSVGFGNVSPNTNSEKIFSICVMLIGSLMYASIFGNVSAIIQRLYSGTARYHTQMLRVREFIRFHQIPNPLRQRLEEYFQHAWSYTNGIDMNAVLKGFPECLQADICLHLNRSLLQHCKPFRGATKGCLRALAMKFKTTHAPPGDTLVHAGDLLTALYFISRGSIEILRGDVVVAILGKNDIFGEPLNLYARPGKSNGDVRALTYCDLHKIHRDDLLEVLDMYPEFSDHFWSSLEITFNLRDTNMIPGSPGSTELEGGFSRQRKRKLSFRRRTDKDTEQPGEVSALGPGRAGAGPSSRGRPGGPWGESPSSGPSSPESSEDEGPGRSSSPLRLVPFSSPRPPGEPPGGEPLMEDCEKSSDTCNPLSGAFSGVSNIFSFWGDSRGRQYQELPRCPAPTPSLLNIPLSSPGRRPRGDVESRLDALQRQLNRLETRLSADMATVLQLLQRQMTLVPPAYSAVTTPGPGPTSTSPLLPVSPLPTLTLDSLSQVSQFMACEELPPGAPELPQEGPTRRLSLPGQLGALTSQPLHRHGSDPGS

Data set [7] is described as follows: Stability in liver microsomes. The data set is classed as in vitro ADME, rat. The conditions noted are these: 1 μM, NADPH-regenerating system, 37° C. The text has this: The HPLC system (Dionex Corp., Sunnyvale, Calif.) includes a Dionex […] pump, a Phenomenex Luna.
Data set [8] in a line: Oral administration / brain uptake assay. The conditions noted are these: mouse, in vivo.
Method: At various times (0-60 min) after administration, mice were sacrificed, blood removed by cardiac puncture, and brains immediately harvested, weighed, quick-frozen in liquid nitrogen, and stored at −80° C. until assayed. Brain tissue was homogenized in 1.5 ml of 0.1 M perchloric acid. After centrifugation (12,000×g for 10 min), the supernatant was neutralized, with 1 M NaOH and then extracted three times with 2 ml of dichloromethane by centrifugation at 3,000×g for 5 min. The organic phases from the three successive extractions were pooled and then vaporated to dryness under reduced pressure. The dried sample was reconstituted in 100 ul of HPLC mobile phase (80% acetonitrile, 0.08% formic acid, 20% H2O), and 20 μl of the reconstituted material was injected into the HPLC system. […] A standard curve of the test compound was prepared by adding increasing concentrations of the compound to brain, tissue from untreated mice, then extracting the brains and performing HPLC analysis as described above. The area under the curve increased linearly with the concentration of the compound over the range of concentrations investigated, with a correlation coefficient of 0.99.

T1 sequence (Q12809 whole entry): as above

The compound `c1ccc(-c2cc(-c3ccncc3)c(N3CCN(c4ncccn4)CC3)nn2)cc1` [MW01-6-189WH, 4-pyridyl-6-phenyl-3-(4-pyrimidin-2-ylpiperazin-1-yl)pyridazine] showed an IC50 in data set [1] of 4.81 µM.
As for `c1ccc(-c2cc(-c3ccccc3)c(N3CCN(c4ncccn4)CC3)nn2)cc1` [MW01-5-188WH, 4,6-diphenyl-3-(4-pyrimidin-2-ylpiperazin-1-yl)pyridazine], in data set [2], the IL-1β production result was “concentration-dependent inhibition” and the TNFα production entry was “concentration-dependent inhibition”. The “Accumulation of the NO metabolite, nitrite” value in data set [2] (concentrations up to 33 μM) is reported as “not inhibited”. Besides, in data set [3], the COX-2 production entry was “does not suppress”, the apoE production result is recorded as “does not suppress” and the iNOS production result is “does not suppress”. Also, in data set [4], the heart rate result was “no significant effects” and the mean blood pressure result is reported as “no significant effects”. Also, the “number of F4/80 positive microglia in the hippocampus” value in data set [5] (daily oral […] for 2 weeks) is on record as “decreased”. For the same compound, the inhibition at 10 µM in data set [6] is 91%.
As for `Clc1cc(-c2ccccc2)nnc1N1CCN(c2ncccn2)CC1` [MW01-6-127WH, 4-chloro-6-phenyl-3-(4-pyrimidin-2-ylpiperazin-1-yl)pyridazine], the inhibition at 10 µM in data set [6] was determined as 19%.
Regarding `c1ccc(-c2ccc(N3CCN(c4ncccn4)CC3)nn2)cc1` [MW01-3-183WH, 2-(4-(6-phenylpyridazin-3-yl)piperazin-1-yl)pyrimidine], in data set [2], the IL-1β production result was “suppressed both IL-1β and TNFα production in a concentration dependent manner”; the TNFα production entry was “suppressed both IL-1β and TNFα production in a concentration dependent manner”.
For the compound `Cc1cc(-c2ccccc2)nnc1N1CCN(c2ncccn2)CC1` [MW01-2-151SRM, 4-methyl-6-phenyl-3-(4-pyrimidin-2-ylpiperazin-1-yl)pyridazine], in data set [7], the stability in microsomes result is given as “demonstrated”. Besides, the 50% inhibitory concentration (IC50) in data set [1] was determined as 9.21 µM. For the same compound, in data set [2], the activated glia responses entry is reported as “selective suppressor” and the IL-1β production result was “suppress IL-1β in a concentration dependent manner”. Besides, the oral availability result in data set [8] is on record as “orally available”. In data set [4], the heart rate entry is given as “no significant effects” and the mean blood pressure entry is on record as “no significant effects”. Also, the “cardiac QT interval” value in data set [4] (baseline, 15, 30, 45, 60 min, vs mean+2 SD of vehicle control) is “Neither compound increased”. Further, in data set [5] (mouse, in vivo), the “efficacy in the mouse model of human Aβ-induced neuroinflammation and neuronal injury” value is listed as “showed efficacy”; the “inflammatory response endpoints outside the brain” value is “did not suppress”. Moreover, in data set [6], the inhibition at 10 µM was 8%.
